From US9110059B2, “Bio-pin” (Industry-Academic Cooperation Foundation, Yonsei University, priority 2011, dated 2015)

Key:
Assay type in all cases: cell-based
[1] = test system: intercellular cell adhesion molecule-1 (ICAM-1); experiment: Immunoblotting of HUVEC lysate with anti-ICAM-1 antibody; details: TNF-alpha 10 ng/mL for 24 hours
Description: (§1) HUVECs (5×10^4 cells/well) were cultured in an EGM medium (Lonza, USA) on a 24-well plate, starved for 4 hours in a 0.5% EBM medium, and treated with TNF-alpha (10 ng/mL) for 24 hours. Thereafter, the HUVECs were treated with a CellMask™ plasma membrane stain (Invitrogen, USA) at a final concentration of 5 μg/mL, reacted at 37° C. for 30 minutes in a CO2 incubator, and then washed three times with PBS.
(§2) Also, to determine whether the HUVECs were suitably stimulated with TNF-alpha, immunoblotting was performed using anti-ICAM-1 and anti-VCAM-1 antibodies.

[2] = test system: vascular cell adhesion molecule-1 (VCAM-1); experiment: Immunoblotting of HUVEC lysate with anti-VCAM-1 antibody; details: TNF-alpha 10 ng/mL for 24 hours
Description: as §1, §2

[3] = test system: rat mesenchymal stem cells attached to H9c2 cells; experiment: Adhesion of bio-pin-treated mesenchymal stem cells to H9c2 cells (intercellular bond number); details: stem cells treated with 1 μM bio-pin for an hour, kept 10 minutes on H9c2 cells; fluorescence microscope and spectrometer
Description: (§3) Rat cardiac myoblast H9c2 cells were incubated until a 4-well chamber (Lab-Tek chamber slide) was 100% filled with the H9c2 cells. Thereafter, the H9c2 cells were treated with a cell-labeled dye (Vybrant™ DiI) at a final concentration of 5 μl/mL, reacted at 37° C. for 30 minutes in a CO2 incubator, and then washed three times with PBS.
(§4) Also, rat mesenchymal stem cells were cultured in a MesenPRO (Gibco, USA) medium in a petri dish. Thereafter, trypsin-EDTA and a trypsin-neutralizing solution were added at a ratio of 1:1, and then reacted for 5 minutes to detach the stem cells. The stem cells were treated with a cell-modifying dye (Vybrant™ DiO, Invitrogen, USA) at a final concentration of 5 μl/mL, reacted at 37° C. for 30 minutes in a CO2 incubator, washed three times with PBS, and then centrifuged for 3 minutes at a rotary speed of 1,200 rpm to be prepared.
(§5) The prepared stem cells were treated with the peptide-based complex previously prepared in Example 1 or 2 at a final concentration of 1 μM, reacted at 37° C. for an hour in a CO2 incubator while stirring right and left, washed three times with PBS, and then centrifuged to obtain a cell pellet. […] To quantify the MSCs attached to the H9c2 cells, a cell medium was removed off, and 200 μl of 0.1% Triton X-100 was added, and removed off after 5 minutes.

[4] = test system: rat mesenchymal stem cells (MSCs) attached to H9c2 cells; experiment: Adhesion of BPin-RGD-treated mesenchymal stem cells to H9c2 cells (intercellular bond number); details: stem cells treated with 100 nM bio-pin for an hour, kept 10 minutes on H9c2 cells; fluorescence 484 nm/501 nm
Description: as §3, with “CellMask™ plasma membrane stain (Invitrogen, USA)” for “cell-labeled dye (Vybrant™ DiI)”
as §4, with “stem cells (MSCs) were cultured” for “stem cells were cultured”, “concentration of 2 μl/mL, reacted” for “concentration of 5 μl/mL, reacted”, “of 1,200 rpm.” for “of 1,200 rpm to be prepared.”
as §5, with “bio-pin” for “peptide-based complex previously”, “3” for “1 or 2”, “100 nM,” for “1 μM,”, “pellet. Subsequently, the cell pellet was re-suspended in 400 μl of a DMEM medium supplemented with 10% FBS.” for “pellet.”, “cells,” for “cells, a cell medium was removed off, and”

TNF-alpha was tested, and the “ICAM-1 expression in HUVECs (FIG. 9)” value [1] was “increasingly expressed” and the “VCAM-1 expression in HUVECs (FIG. 9)” value [2] was “increasingly expressed”.
For “BPin-55: bio-pin in which TAT cell-penetrating peptides are fused with N- and C-terminus of 31-amino-acid OPRD first transmembrane domain peptide (YGRKKRRQRRRGSLAIAITALYSAVCAVGLLGNVLVMFGIVRYTYGRKKRRQRRR; BPin-55 TAT-OPRD-TAT)”, the “number of intercellular bonds (FIGS. 5 and 6)” value [3] was “remarkably increased”.
With “BPin-RGD: bio-pin with adhesive peptide (GRGDSP) at N-terminus and TAT cell-penetrating peptide at C-terminus of the 31-amino-acid OPRD peptide (GRGDSPGSLAIAITALYSAVCAVGLLGNVLVMFGIVRYTYGRKKRRQRRR; BPin-RGD RGD-OPRD-TAT)” the “number of intercellular bonds (FIG. 7)” value [4] was “remarkably increased”.
